Laboratory results from ChEMBL document CHEMBL4828765, “Design and Development of a Chemical Probe for Pseudokinase Ca2+/calmodulin-Dependent Ser/Thr Kinase” (J Med Chem, 2021).
Calls of active or inactive are those of the source. The rule behind the calls is not given here.

How the values were obtained:
[1] = molecular target: Hepatocyte growth factor receptor (Homo sapiens) (UniProt P08581); experiment: Binding affinity to human MET at 1 uM by KINOMEscan scanMAX assay relative to control
[2] = molecular target: T1, Tyrosine-protein kinase Mer (Homo sapiens) (UniProt Q12866); experiment: Binding affinity to MERTK (571 to 864 residue) (unknown origin) expressed in Escherichia coli Rosetta cells assessed as change in melting temperature by SYPRO orange dye based DSF assay
T1 sequence (whole entry): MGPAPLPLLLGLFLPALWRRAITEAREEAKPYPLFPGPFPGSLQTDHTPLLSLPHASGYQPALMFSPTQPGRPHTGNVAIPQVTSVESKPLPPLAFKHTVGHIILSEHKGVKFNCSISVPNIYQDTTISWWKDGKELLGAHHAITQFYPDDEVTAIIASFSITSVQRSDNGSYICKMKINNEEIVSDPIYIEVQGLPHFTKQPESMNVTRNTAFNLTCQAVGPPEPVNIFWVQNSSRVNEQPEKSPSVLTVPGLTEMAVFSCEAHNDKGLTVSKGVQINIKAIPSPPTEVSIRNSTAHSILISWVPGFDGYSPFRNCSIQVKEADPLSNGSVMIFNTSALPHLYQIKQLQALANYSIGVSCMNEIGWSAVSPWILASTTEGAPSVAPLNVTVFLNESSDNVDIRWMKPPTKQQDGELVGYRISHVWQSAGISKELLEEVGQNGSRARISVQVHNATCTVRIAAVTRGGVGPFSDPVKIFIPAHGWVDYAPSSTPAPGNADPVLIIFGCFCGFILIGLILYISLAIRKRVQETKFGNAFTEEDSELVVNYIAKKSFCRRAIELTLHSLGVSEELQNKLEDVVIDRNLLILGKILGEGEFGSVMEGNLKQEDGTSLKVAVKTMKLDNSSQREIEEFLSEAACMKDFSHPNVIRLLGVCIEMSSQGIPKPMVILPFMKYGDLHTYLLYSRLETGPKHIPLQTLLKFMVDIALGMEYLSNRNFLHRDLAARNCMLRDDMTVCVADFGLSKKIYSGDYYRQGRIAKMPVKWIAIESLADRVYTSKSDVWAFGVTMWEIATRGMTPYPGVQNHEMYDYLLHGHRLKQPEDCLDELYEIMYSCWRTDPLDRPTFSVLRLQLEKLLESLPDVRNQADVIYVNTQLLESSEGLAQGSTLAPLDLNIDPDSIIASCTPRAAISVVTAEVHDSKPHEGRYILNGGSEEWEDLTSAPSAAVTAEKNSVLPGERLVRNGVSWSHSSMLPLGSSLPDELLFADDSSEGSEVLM

[3] = molecular target: T2, Ribosomal protein S6 kinase alpha-2 (Homo sapiens, UniProt Q15349); experiment: Binding affinity to human N-terminal RSK3 kinase domain 1 at 1 uM by KINOMEscan scanMAX assay relative to control
Homo sapiens = species: Homo sapiens; experiment: Binding affinity to MERTK-AXL mutant (unknown origin) expressed in Escherichia coli Rosetta cells assessed as change in melting temperature by SYPRO orange dye based DSF assay
[4] = molecular target: T3, Tyrosine-protein kinase ABL1 (Homo sapiens, UniProt P00519); experiment: Binding affinity to human non-phosphorylated ABL1 at 1 uM by KINOMEscan scanMAX assay relative to control
[5] = molecular target: Tyrosine-protein kinase receptor UFO (Homo sapiens) (UniProt P30530); experiment: Binding affinity to human AXL at 1 uM by KINOMEscan scanMAX assay relative to control
[6] = molecular target: T3, Tyrosine-protein kinase ABL1; experiment: Binding affinity to human non-phosphorylated ABL1 by KINOMEscan scanMAX assay
[7] = molecular target: T4, Casein kinase I isoform epsilon (Homo sapiens, UniProt P49674); experiment: Binding affinity to human CSNK1E by KINOMEscan scanMAX assay
Target sequence in this assay (P49674 whole entry, canonical isoform): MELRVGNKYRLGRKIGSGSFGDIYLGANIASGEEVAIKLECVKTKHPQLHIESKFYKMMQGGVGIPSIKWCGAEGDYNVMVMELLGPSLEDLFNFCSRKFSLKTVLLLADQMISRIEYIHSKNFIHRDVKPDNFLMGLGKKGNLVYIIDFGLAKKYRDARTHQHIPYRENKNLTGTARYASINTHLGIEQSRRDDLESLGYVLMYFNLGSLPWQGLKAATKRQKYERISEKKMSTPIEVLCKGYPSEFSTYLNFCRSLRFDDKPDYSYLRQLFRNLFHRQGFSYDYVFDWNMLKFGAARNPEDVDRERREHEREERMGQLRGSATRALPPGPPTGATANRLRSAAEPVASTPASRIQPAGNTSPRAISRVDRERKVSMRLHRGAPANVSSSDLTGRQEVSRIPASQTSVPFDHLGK

[8] = molecular target: Tyrosine-protein kinase receptor UFO (Homo sapiens) (UniProt P30530); experiment: Binding affinity to AXL (unknown origin) assessed as change in melting temperature by SYPRO orange dye based DSF assay
[9] = molecular target: T4, Casein kinase I isoform epsilon; experiment: Binding affinity to human CSNK1E at 1 uM by KINOMEscan scanMAX assay relative to control
Target sequence in this assay (P49674 whole entry, looked up, canonical isoform): as the sequence (P49674 whole entry, canonical isoform) above

[10] = molecular target: T5, Mitogen-activated protein kinase kinase kinase 2 (Homo sapiens) (UniProt Q9Y2U5); experiment: Binding affinity to human MAP3K2 at 1 uM by KINOMEscan scanMAX assay relative to control
T5 sequence (whole entry): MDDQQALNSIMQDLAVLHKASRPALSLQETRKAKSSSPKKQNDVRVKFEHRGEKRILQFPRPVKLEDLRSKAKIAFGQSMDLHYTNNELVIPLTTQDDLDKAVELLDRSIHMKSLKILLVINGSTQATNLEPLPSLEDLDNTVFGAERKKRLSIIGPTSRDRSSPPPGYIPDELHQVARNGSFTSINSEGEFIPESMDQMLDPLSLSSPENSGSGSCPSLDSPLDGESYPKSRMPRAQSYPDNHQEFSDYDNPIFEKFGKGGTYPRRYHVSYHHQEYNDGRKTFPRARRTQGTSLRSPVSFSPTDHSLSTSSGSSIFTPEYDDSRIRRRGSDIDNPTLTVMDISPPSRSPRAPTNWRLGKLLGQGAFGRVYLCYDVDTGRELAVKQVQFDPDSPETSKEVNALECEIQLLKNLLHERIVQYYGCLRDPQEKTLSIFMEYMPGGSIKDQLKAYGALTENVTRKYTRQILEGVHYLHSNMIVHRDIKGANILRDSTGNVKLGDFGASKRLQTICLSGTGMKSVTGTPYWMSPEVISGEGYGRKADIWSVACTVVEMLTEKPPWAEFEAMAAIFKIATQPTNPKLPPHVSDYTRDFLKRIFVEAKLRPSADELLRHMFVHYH

[11] = molecular target: T6, Tyrosine-protein kinase receptor TYRO3 (Homo sapiens, UniProt Q06418); experiment: Inhibition of tracer K5 binding to NanoLuc-fused TYRO3 (unknown origin) expressed in HEK293T cells measured after 2 hrs by NanoBRET assay; format: cell-based
T6 sequence (Q06418 whole entry): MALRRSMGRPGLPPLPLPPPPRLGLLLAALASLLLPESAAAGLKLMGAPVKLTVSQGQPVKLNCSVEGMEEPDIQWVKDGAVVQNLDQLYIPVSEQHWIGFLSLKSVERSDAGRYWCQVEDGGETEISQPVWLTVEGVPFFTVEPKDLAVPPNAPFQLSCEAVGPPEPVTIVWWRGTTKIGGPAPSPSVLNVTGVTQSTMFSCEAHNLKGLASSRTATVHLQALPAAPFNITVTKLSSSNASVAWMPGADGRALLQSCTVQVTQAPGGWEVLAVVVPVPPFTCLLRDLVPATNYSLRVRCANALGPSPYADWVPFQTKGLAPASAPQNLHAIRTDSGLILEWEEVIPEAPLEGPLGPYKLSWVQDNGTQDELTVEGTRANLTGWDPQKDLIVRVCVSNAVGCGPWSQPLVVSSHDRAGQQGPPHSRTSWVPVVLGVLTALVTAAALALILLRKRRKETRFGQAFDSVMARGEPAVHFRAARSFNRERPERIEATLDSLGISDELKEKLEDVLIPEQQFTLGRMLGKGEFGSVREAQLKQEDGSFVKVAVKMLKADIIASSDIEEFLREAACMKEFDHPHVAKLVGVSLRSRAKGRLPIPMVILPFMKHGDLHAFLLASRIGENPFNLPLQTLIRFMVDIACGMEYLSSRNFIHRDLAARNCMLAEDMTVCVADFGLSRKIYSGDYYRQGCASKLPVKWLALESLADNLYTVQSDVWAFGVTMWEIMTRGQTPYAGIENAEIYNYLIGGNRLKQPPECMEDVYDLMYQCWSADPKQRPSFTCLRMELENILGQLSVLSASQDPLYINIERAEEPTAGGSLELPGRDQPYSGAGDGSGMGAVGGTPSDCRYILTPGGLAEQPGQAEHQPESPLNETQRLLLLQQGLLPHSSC

[12] = molecular target: T1, Tyrosine-protein kinase Mer (Homo sapiens); experiment: Binding affinity to human MERTK at 1 uM by KINOMEscan scanMAX assay relative to control
[13] = molecular target: T7, Mitogen-activated protein kinase kinase kinase 2 (Homo sapiens, UniProt Q9Y2U5); experiment: Binding affinity to human MAP3K2 by KINOMEscan scanMAX assay
T7 sequence (Q9Y2U5 whole entry): T5 sequence (whole entry)

[14] = molecular target: T4, Casein kinase I isoform epsilon; experiment: Binding affinity to CSNK1E (unknown origin) assessed as change in melting temperature by SYPRO orange dye based DSF assay
Target sequence in this assay (P49674 whole entry, looked up, canonical isoform): as the sequence (P49674 whole entry, canonical isoform) above

[15] = molecular target: T3, Tyrosine-protein kinase ABL1; experiment: Inhibition of tracer K5 binding to NanoLuc-fused ABL1 (unknown origin) expressed in HEK293T cells measured after 2 hrs by NanoBRET assay; format: cell-based
[16] = molecular target: T2, Ribosomal protein S6 kinase alpha-2; experiment: Binding affinity to human N-terminal RSK3 kinase domain 1 by KINOMEscan scanMAX assay
[17] = molecular target: T8, Tyrosine-protein kinase Mer (Homo sapiens, UniProt Q12866); experiment: Binding affinity to human MERTK by KINOMEscan scanMAX assay
T8 sequence (Q12866 whole entry): T1 sequence (whole entry)

[18] = molecular target: T3, Tyrosine-protein kinase ABL1
Description: Binding affinity to non-phosphorylated ABL1 (unknown origin) assessed as change in melting temperature by SYPRO orange dye based DSF assay

[19] = molecular target: T8, Tyrosine-protein kinase Mer; experiment: Inhibition of tracer K5 binding to NanoLuc-fused MERTK (unknown origin) expressed in HEK293T cells measured after 2 hrs by NanoBRET assay; format: cell-based
P19 [20] = experiment: Induction of cell death in mouse P19 cell differentiation model at 2 uM preincubated for 4 days followed by cytosine arabinoside addition measured after 6 hrs by immunostaining based microscopic analysis; format: functional; settings: time 102.0 hrs
[21] = molecular target: T9, Tyrosine-protein kinase receptor UFO (Homo sapiens, UniProt P30530); experiment: Inhibition of tracer K5 binding to NanoLuc-fused AXL (unknown origin) expressed in HEK293T cells measured after 2 hrs by NanoBRET assay; format: cell-based
T9 sequence (P30530 whole entry): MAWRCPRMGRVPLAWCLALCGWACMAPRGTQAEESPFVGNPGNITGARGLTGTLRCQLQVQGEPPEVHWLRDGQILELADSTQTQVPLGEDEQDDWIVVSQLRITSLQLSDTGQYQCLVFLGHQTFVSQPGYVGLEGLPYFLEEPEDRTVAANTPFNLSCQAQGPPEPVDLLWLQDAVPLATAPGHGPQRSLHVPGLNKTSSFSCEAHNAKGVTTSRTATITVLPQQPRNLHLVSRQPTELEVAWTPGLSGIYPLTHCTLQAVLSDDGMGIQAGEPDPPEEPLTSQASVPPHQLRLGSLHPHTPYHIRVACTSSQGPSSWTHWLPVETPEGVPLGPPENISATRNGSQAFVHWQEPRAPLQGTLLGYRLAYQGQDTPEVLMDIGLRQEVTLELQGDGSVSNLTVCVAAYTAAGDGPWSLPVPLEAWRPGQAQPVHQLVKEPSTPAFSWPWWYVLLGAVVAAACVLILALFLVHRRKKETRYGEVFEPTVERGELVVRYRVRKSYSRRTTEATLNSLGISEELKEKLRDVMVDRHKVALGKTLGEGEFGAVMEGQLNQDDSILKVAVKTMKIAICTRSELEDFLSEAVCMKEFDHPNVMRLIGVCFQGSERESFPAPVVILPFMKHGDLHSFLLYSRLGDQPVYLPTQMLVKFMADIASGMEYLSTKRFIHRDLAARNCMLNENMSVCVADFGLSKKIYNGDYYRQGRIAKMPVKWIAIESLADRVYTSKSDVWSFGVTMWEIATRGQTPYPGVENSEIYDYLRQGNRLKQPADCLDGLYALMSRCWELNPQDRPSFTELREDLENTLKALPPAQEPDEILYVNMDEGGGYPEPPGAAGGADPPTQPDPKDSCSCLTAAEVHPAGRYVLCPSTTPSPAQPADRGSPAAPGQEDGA

P19 [22] = experiment: Induction of cell death in mouse P19 cell differentiation model at 1 uM preincubated for 4 days followed by cytosine arabinoside addition measured after 6 hrs by immunostaining based microscopic analysis; format: functional; settings: time 102.0 hrs
P19 [23] = experiment: Induction of beta3-tubulin abundance in mouse P19 cells at 1 uM preincubated for 4 days followed by cytosine arabinoside addition measured after 6 hrs by immunostaining based microscopic analysis; format: functional, cell-based; settings: time 4.0 day
[24] = molecular target: T4, Casein kinase I isoform epsilon; experiment: Inhibition of tracer K5 binding to NanoLuc-fused CSNK1E (unknown origin) expressed in HEK293T cells measured after 2 hrs by NanoBRET assay; format: cell-based
Target sequence in this assay (P49674 whole entry, canonical isoform): as the sequence (P49674 whole entry, canonical isoform) above

T3 sequence (P00519 whole entry): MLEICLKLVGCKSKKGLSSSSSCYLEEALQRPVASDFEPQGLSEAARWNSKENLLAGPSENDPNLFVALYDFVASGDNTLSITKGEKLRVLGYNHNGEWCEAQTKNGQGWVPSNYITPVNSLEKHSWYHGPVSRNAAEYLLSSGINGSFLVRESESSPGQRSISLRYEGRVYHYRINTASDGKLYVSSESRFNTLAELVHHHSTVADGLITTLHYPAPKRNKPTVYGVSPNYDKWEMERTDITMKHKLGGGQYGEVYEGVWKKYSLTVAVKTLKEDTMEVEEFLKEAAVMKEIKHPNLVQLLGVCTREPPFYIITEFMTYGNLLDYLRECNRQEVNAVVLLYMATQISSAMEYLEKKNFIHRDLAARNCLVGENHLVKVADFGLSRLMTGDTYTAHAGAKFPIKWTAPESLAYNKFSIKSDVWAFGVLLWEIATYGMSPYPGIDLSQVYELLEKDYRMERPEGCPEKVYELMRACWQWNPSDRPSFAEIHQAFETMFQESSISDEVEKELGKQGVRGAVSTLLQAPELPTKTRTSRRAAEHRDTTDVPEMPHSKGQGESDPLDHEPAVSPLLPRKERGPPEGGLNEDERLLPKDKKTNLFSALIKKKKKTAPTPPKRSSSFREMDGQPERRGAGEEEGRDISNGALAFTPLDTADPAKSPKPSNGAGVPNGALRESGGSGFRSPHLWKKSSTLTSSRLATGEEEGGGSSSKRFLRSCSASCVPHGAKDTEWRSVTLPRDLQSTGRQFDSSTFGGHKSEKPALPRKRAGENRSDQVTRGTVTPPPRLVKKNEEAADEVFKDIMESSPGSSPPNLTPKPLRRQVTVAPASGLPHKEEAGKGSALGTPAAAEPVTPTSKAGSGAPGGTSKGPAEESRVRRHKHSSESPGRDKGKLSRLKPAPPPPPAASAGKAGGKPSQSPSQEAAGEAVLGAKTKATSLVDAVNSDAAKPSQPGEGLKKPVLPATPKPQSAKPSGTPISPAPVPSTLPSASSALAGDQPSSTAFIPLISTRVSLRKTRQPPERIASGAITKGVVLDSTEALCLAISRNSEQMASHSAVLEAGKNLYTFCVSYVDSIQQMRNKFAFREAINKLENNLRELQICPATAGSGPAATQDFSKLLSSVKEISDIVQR
T2 sequence (Q15349 whole entry, the tested form may be a part): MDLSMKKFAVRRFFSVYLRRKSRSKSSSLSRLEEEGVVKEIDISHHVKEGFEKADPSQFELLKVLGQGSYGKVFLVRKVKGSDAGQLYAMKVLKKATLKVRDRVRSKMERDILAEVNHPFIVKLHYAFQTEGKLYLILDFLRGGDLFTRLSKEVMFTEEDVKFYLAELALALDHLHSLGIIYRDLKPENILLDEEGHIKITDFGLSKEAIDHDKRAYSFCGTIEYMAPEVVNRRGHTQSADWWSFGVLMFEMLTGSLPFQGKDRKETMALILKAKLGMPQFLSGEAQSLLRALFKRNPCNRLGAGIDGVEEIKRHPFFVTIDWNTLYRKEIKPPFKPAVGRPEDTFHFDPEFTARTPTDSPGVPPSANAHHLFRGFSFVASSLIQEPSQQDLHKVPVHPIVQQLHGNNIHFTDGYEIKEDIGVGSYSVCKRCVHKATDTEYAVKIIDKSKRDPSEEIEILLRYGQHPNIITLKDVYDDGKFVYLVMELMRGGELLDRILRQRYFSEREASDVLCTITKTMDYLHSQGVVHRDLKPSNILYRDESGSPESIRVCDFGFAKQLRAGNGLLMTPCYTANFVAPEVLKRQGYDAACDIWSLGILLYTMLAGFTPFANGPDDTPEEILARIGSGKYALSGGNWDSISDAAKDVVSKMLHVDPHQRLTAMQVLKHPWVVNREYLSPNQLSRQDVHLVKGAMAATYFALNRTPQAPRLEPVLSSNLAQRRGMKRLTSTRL
Chain of Hepatocyte growth factor receptor (Homo sapiens) (P08581 whole entry): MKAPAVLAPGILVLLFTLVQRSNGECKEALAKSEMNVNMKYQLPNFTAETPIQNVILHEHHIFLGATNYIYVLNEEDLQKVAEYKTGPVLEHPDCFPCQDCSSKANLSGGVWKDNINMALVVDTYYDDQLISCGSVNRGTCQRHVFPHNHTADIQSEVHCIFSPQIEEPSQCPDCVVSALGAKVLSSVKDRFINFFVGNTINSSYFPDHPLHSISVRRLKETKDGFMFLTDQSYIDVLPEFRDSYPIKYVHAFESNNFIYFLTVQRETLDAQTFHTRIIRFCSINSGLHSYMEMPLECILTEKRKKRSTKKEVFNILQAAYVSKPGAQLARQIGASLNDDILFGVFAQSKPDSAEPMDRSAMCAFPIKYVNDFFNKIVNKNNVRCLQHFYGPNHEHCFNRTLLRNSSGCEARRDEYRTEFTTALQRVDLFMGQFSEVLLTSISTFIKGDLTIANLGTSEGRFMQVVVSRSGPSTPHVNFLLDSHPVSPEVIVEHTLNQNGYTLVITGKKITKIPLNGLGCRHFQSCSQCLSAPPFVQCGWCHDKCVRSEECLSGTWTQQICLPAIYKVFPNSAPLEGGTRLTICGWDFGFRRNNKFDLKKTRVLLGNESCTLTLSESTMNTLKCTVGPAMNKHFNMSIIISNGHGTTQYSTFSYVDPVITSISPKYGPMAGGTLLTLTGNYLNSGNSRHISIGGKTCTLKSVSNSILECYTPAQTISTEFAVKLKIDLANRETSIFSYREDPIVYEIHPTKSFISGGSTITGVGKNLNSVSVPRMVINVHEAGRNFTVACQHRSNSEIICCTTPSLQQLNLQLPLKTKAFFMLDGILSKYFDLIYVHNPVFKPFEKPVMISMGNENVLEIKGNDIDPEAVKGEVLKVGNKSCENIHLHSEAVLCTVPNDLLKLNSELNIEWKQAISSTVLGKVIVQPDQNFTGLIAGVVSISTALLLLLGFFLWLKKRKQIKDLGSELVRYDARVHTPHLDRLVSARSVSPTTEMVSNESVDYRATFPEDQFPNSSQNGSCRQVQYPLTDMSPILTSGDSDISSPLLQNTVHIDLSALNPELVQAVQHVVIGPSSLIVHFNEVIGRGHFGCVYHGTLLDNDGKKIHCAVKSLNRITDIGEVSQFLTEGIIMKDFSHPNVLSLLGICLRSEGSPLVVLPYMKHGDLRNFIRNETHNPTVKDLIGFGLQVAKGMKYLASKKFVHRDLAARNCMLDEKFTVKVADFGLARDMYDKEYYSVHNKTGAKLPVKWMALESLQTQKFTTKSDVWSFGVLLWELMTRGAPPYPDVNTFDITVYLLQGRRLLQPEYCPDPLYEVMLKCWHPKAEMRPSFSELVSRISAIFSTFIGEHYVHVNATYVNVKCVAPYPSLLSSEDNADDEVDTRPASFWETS

| deltaTm [2] [K] | IC50 [11] [µM] | deltaTm [14] [K] | IC50 [15] [µM] | deltaTm [18] [K] | IC50 [19] [µM] | IC50 [21] [µM] | SMILES | deltaTm (Homo sapiens) [K] | further results |
| --- | --- | --- | --- | --- | --- | --- | --- | --- | --- |
| -0.2 | 0.7 | 5.6 | > 10 | 8.6 | > 10 | – | O=C(NCCCN1CCOC1=O)c1cnc(NCc2cc(Cl)ccc2Cl)nc1NC1CCCC1 | 0.2 | Activity [1]: 63%; Activity [3]: 67%; Activity [4]: 73%; Activity [5]: 61%; Kd [6]: 0.74 µM; Kd [7]: 0.77 µM; deltaTm [8]: 0.2 K; Activity [9]: 76%; Activity [10]: 63%; Ki [11]: 0.12 µM; Activity [12]: 75%; Kd [13]: 0.69 µM; Kd [16]: 1.3 µM; Kd [17]: 0.57 µM |
| – | > 10 | – | > 10 | – | > 10 | > 10 | CCN(Cc1ccc(Cl)cc1)c1ncc(C(=O)NCCCN2CCCC2=O)c(NC2CCCC2)n1 | – | Activity (P19 [20]): inactive; Activity (P19 [22]): inactive; Activity (P19 [23]): inactive |
| -0.5 | 8.73 | 3.8 | > 10 | 8.4 | > 10 | > 10 | Cc1cc(Br)c(CNc2ncc(C(=O)NCCCN3CCOC3=O)c(NC3CCCCC3)n2)cc1Br | 0.1 | IC50 [24]: 22.1 µM |
